For the data set the following is noted: from CC[C@@H](O)C(C)=C=C[C@@H](OCc1ccccc1)[C@H](C)CC(C)=C=C[C@H](OCc1ccccc1)[C@@H](C)C(=O)O; ester bond; 2,4,6-trichlorobenzoyl chloride / TEA / DMAP (Yamaguchi); toluene; 3.18 mM; 80.0 °C; 8.0 h.

`CC[C@H]1OC(=O)[C@H](C)[C@@H](OCc2ccccc2)C=C=C(C)C[C@@H](C)[C@H](OCc2ccccc2)C=C=C1C` registered a ring closure, yield of all isomers of 64%.

The values above are taken from US8796474.
